Laboratory results published in patent publication US12180197B2, “GLP-1R modulating compounds” (Gilead Sciences, Inc., priority 2021, dated 2024).

Target: GLP-1R (Homo sapiens, UniProt P43220)
Experiment: GLP-1R Activation - cAMP Assay 2
Assay type: cell-based
Conditions: cAMP increase in CHO cells stably expressing GLP-1R; pre-spotted agonists; assay buffer or 100% Human Plasma (not given); 30 minutes
Description: GLP-1R Activation—cAMP Assay 2
GLP-1R activation by small molecule agonists is quantified by measuring cAMP increase in CHO cells stably expressing GLP-1R (MultiSpan product #C1267-1a). 50 nL of agonists are pre-spotted in a 10 point dose response onto 384-well plate (Corning product #CL3826) using the Labcyte Echo System. The cells are harvested and plated in assay buffer (HBSS (Corning product #21-023-CV) with 20 mM Hepes (Gibco product #15630-080) and 0.1% BSA (Rockland Immunochemicals product #BSA-1000)) or 100% Human Plasma (Innovative Research product #50-643-396) at 1,000 cells/well, 10 μL/well, onto the pre-spotted plates. The cells are then incubated for 30 minutes at 37° C., 5% CO2. cAMP concentration increase is then detected using Cisbio's cAMP Gs Dynamic Kit (product #62AM4PEC) according to the manufacturer's protocol. The response is plotted against the log of the agonist concentration and fitted to a sigmoidal equation to determine the EC50.

Chain of GLP-1R (P43220 24-463): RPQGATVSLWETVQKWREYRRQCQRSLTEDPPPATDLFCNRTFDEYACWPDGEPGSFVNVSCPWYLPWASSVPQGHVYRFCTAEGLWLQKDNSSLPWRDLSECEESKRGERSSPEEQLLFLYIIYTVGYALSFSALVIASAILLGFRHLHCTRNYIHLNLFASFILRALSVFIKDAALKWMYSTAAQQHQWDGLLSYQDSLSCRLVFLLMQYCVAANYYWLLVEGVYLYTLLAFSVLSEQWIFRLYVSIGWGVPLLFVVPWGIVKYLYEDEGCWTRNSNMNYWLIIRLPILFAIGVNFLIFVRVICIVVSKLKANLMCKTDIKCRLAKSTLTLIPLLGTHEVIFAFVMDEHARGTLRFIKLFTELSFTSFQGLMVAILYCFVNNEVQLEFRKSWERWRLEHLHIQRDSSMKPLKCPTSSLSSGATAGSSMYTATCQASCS

Work on COCCn1c(CN2CCC(c3cccc(OCc4ccc(-c5cn(C)nn5)cc4F)n3)CC2)nc2ccc(C(=O)O)cc21 [Example 17, 2-((4-(6-((2-fluoro-4-(1-methyl-1H-1,2,3-triazol-4-yl)benzyl)oxy)pyridin-2-yl)piperidin-1-yl)methyl)-1-(2-methoxyethyl)-1H-benzo[d]imidazole-6-carboxylic acid] yielded an EC50 of 24.6 nM.

Cn1cc(-c2ccc(COc3cccc(C4CCN(Cc5nc6ccc(C(=O)O)cc6n5C[C@@H]5CCO5)CC4)n3)c(F)c2)nn1 [Example 18, (S)-2-((4-(6-((2-fluoro-4-(1-methyl-1H-1,2,3-triazol-4-yl)benzyl)oxy)pyridin-2-yl)piperidin-1-yl)methyl)-1-(oxetan-2-ylmethyl)-1H-benzo[d]imidazole-6-carboxylic acid] was tested, and the EC50 was 1.5 nM.

With O=C(O)c1ccc2nc(CN3CCC(c4cccc(OCc5ccc(-c6cnn(C(F)F)c6)cc5F)n4)CC3)n(C[C@@H]3CCO3)c2c1 [Example 19, (S)-2-((4-(6-((4-(1-(difluoromethyl)-1H-pyrazol-4-yl)-2-fluorobenzyl)oxy)pyridin-2-yl)piperidin-1-yl)methyl)-1-(oxetan-2-ylmethyl)-1H-benzo[d]imidazole-6-carboxylic acid] the EC50 was 0.2 nM.

In the case of O=C(O)c1ccc2nc(CN3CCC(c4cccc(OCc5ccc(-c6cnc(C7CC7)o6)cc5F)n4)CC3)n(C[C@@H]3CCO3)c2c1 [Example 20, (S)-2-((4-(6-((4-(2-cyclopropyloxazol-5-yl)-2-fluorobenzyl)oxy)pyridin-2-yl)piperidin-1-yl)methyl)-1-(oxetan-2-ylmethyl)-1H-benzo[d]imidazole-6-carboxylic acid], the EC50 is reported as 1.9 nM.

For COCCn1c(CN2CCC(c3cccc(OCc4ccc(-c5cnn(C)c5)cc4F)n3)CC2)nc2ccc(C(=O)O)cc21 [Example 21, 2-((4-(6-((2-fluoro-4-(1-methyl-1H-pyrazol-4-yl)benzyl)oxy)pyridin-2-yl)piperidin-1-yl)methyl)-1-(2-methoxyethyl)-1H-benzo[d]imidazole-6-carboxylic acid], the EC50 was 7.2 nM.

Cn1cc(C#Cc2ccc(COc3cccc(C4CCN(Cc5nc6ccc(C(=O)O)cc6n5C[C@@H]5CCO5)CC4)n3)c(F)c2)cn1 [Example 22, 2-[[4-[6-[[2-fluoro-4-[2-(1-methylpyrazol-4-yl)ethynyl]phenyl]methoxy]-2-pyridyl]-1-piperidyl]methyl]-3-[[(2S)-oxetan-2-yl]methyl]benzimidazole-5-carboxylic acid] was tested, and the EC50 was 3.1 nM.

Compound O=C(O)c1ccc2nc(CN3CCC(c4cccc(OCc5ccc(-c6cn(C7CC7)nn6)cc5F)n4)CC3)n(C[C@@H]3CCO3)c2c1 [Example 23, (S)-2-((4-(6-((4-(1-cyclopropyl-1H-1,2,3-triazol-4-yl)-2-fluorobenzyl)oxy)pyridin-2-yl)piperidin-1-yl)methyl)-1-(oxetan-2-ylmethyl)-1H-benzo[d]imidazole-6-carboxylic acid] has an EC50 of 1.7 nM.

O=C(O)c1ccc2nc(CN3CCC(c4cccc(OCc5ccc(-c6cn(C7COC7)nn6)cc5F)n4)CC3)n(C[C@@H]3CCO3)c2c1 [Example 24, (S)-2-((4-(6-((2-fluoro-4-(1-(oxetan-3-yl)-1H-1,2,3-triazol-4-yl)benzyl)oxy)pyridin-2-yl)piperidin-1-yl)methyl)-1-(oxetan-2-ylmethyl)-1H-benzo[d]imidazole-6-carboxylic acid] gave an EC50 of 1.7 nM.

In the case of O=C(O)c1ccc2nc(CN3CCC(c4cccc(OCc5ccc(-n6cc(C7CC7)nn6)cc5F)n4)CC3)n(C[C@@H]3CCO3)c2c1 [Example 40, 2-[[4-[6-[[4-(4-cyclopropyltriazol-1-yl)-2-fluoro-phenyl]methoxy]-2-pyridyl]-1-piperidyl]methyl]-3-[[(2S)-oxetan-2-yl]methyl]benzimidazole-5-carboxylic acid], the EC50 is reported as 1.3 nM.

With O=C(O)c1ccc2nc(CN3CCC(c4cccc(OCc5ccc(-n6ccnn6)cc5F)n4)CC3)n(C[C@@H]3CCO3)c2c1 [Example 41, (S)-2-((4-(6-((2-fluoro-4-(1H-1,2,3-triazol-1-yl)benzyl)oxy)pyridin-2-yl)piperidin-1-yl)methyl)-1-(oxetan-2-ylmethyl)-1H-benzo[d]imidazole-6-carboxylic acid] the EC50 was 0.3 nM.
